In general, IC50 refers to the concentration that inhibits the measured activity by half.

For the assay, the target named is T1, human OX2R (Homo sapiens, UniProt O43614).
T1 construct: expressed in transfected cells; host or cells: CHO (Chinese hamster ovary) cells, grown under G418 selection
T1 sequence (O43614 1-444): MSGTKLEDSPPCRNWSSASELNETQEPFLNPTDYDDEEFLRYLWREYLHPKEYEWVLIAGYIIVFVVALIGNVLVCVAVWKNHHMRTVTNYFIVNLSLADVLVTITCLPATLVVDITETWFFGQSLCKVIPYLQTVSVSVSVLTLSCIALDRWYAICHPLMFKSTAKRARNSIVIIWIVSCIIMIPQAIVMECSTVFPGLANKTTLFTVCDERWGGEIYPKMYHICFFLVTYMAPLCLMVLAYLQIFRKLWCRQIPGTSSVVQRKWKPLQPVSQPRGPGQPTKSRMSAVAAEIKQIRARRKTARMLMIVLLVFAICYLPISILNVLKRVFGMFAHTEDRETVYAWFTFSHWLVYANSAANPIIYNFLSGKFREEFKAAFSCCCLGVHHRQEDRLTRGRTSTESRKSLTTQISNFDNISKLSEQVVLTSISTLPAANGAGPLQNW
Description: IPOne (IP-1) orexin receptor agonist assay in CHO cells expressing human OX2R. The class given is cell-based. The note with it: IPOne assay, CHO cells expressing human OX2R, 2 hours incubation; read-out: hoX2R_IP IC50. In a few lines: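 CHO cells with human OX2R treated 2 h at 37 °C with 10-point ½-log compound dilutions in stimulation buffer; IP-1 accumulation read by HTRF (665/620 nm) after 60 min detection. EC50 from four-parameter fit; % effect versus a 1 uM reference agonist.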
For `COC(=O)N1[C@H](C)C[C@H](NS(C)(=O)=O)[C@@H]1COC1CCC2(c3ncc(F)c(OC)n3)CC2C1` (stereo partly drawn) [Example 76, methyl (2R,3S,5R)-2-(((6-(5-fluoro-4-methoxypyrimidin-2-yl)bicyclo[4.1.0]heptan-3-yl)oxy)methyl)-5-methyl-3-(methylsulfonamido)pyrrolidine-1-carboxylate], the half-maximal inhibitory concentration (IC50) is 51.2 nM.

As to `COC(=O)N1[C@H](C)C[C@H](NS(C)(=O)=O)[C@@H]1COC1CCC2(c3ncc(F)c(C)n3)CC2C1` (stereo partly drawn) [Example 77, methyl (2R,3S,5R)-2-(((6-(5-fluoro-4-methylpyrimidin-2-yl)bicyclo[4.1.0]heptan-3-yl)oxy)methyl)-5-methyl-3-(methylsulfonamido)pyrrolidine-1-carboxylate], the IC50 was found to be 736 nM.

As for `CC(C)OC(=O)N1[C@H](C)C[C@H](NS(=O)(=O)C(F)F)[C@@H]1COC1CCC2(c3ncc(Cl)cn3)CC2C1` (stereo partly drawn) [Example 82, isopropyl (2R,3S,5R)-2-(((6-(5-chloropyrimidin-2-yl)bicyclo[4.1.0]heptan-3-yl)oxy)methyl)-3-((difluoromethyl)sulfonamido)-5-methylpyrrolidine-1-carboxylate], the concentration for half-maximal inhibition (IC50) is 10.8 nM.

Turning to `COC(=O)N1[C@H](C)C[C@H](NS(=O)(=O)CF)[C@@H]1COC1CCC2(c3ncc(F)c(OC)n3)CC2C1` (stereo partly drawn) [Example 85, methyl (2R,3S,5R)-2-(((6-(5-fluoro-4-methoxypyrimidin-2-yl)bicyclo[4.1.0]heptan-3-yl)oxy)methyl)-3-((fluoromethyl)sulfonamido)-5-methylpyrrolidine-1-carboxylate], the IC50 is 25.2 nM.

On to `COC(=O)N1[C@H](C)C[C@H](NS(=O)(=O)CF)[C@@H]1COC1CCC2(c3ncc(Cl)c(OC)n3)CC2C1` (stereo partly drawn) [Example 86, methyl (2R,3S,5R)-2-(((6-(5-chloro-4-methoxypyrimidin-2-yl)bicyclo[4.1.0]heptan-3-yl)oxy)methyl)-3-((fluoromethyl)sulfonamido)-5-methylpyrrolidine-1-carboxylate], for which the IC50 turned out to be 9.9 nM.

Regarding `COC(=O)N1[C@H](C)C[C@H](NS(=O)(=O)CF)[C@@H]1COC1CCC2(c3ncc(Br)cn3)CC2C1` (stereo partly drawn) [Example 89, methyl (2R,3S,5R)-2-(((6-(5-bromopyrimidin-2-yl)bicyclo[4.1.0]heptan-3-yl)oxy)methyl)-3-((fluoromethyl)sulfonamido)-5-methylpyrrolidine-1-carboxylate], the IC50 was 1 nM.

For `COC(=O)N1[C@H](C)C[C@H](NS(=O)(=O)CF)[C@@H]1COC1CCC2(c3ncc(Cl)cn3)CC2C1` (stereo partly drawn) [Example 94, methyl (2R,3S,5R)-2-(((6-(5-chloropyrimidin-2-yl)bicyclo[4.1.0]heptan-3-yl)oxy)methyl)-3-((fluoromethyl)sulfonamido)-5-methylpyrrolidine-1-carboxylate], the IC50 was 1.7 nM.

For the molecule `CC(C)OC(=O)N1[C@H](C)C[C@H](NS(=O)(=O)CF)[C@@H]1COC1CCC2(c3ncc(Cl)cn3)CC2C1` (stereo partly drawn) [Example 107, isopropyl (2R,3S,5R)-2-(((6-(5-chloropyrimidin-2-yl)bicyclo[4.1.0]heptan-3-yl)oxy)methyl)-3-((fluoromethyl)sulfonamido)-5-methylpyrrolidine-1-carboxylate], the concentration for half-maximal inhibition (IC50) was 4.5 nM.

As for `CC(C)OC(=O)N1[C@H](C)C[C@H](NS(=O)(=O)CF)[C@@H]1COC1CCC2(c3ncc(Br)cn3)CC2C1` (stereo partly drawn) [Example 108, isopropyl (2R,3S,5R)-2-(((6-(5-bromopyrimidin-2-yl)bicyclo[4.1.0]heptan-3-yl)oxy)methyl)-3-((fluoromethyl)sulfonamido)-5-methylpyrrolidine-1-carboxylate], the half-maximal inhibitory concentration (IC50) was determined as 7.4 nM.

Turning to `CC(C)OC(=O)N1[C@H](C)C[C@H](NS(=O)(=O)C(F)F)[C@@H]1COC1CCC2(c3ncc(F)cn3)CC2C1` (stereo partly drawn) [Example 109, isopropyl (2R,3S,5R)-3-((difluoromethyl)sulfonamido)-2-(((6-(5-fluoropyrimidin-2-yl)bicyclo[4.1.0]heptan-3-yl)oxy)methyl)-5-methylpyrrolidine-1-carboxylate], the IC50 was 3.5 nM.

Take `CC(C)OC(=O)N1[C@H](C)C[C@H](NS(=O)(=O)CF)[C@@H]1COC1CCC2(c3ncc(F)cn3)CC2C1` (stereo partly drawn) [Example 111, isopropyl (2R,3S,5R)-3-((fluoromethyl)sulfonamido)-2-(((6-(5-fluoropyrimidin-2-yl)bicyclo[4.1.0]heptan-3-yl)oxy)methyl)-5-methylpyrrolidine-1-carboxylate]: the IC50 came out at 1 nM.

On to `COC(=O)N1[C@H](C(F)F)C[C@H](NS(=O)(=O)C2CC2)[C@@H]1COC1CCC2(c3ncc(F)cn3)CC2C1` (stereo partly drawn) [Example 116, methyl (2R,3S,5S)-3-(cyclopropanesulfonamido)-5-(difluoromethyl)-2-(((6-(5-fluoropyrimidin-2-yl)bicyclo[4.1.0]heptan-3-yl)oxy)methyl)pyrrolidine-1-carboxylate], for which the IC50 worked out at 2.3 nM.

For the molecule `CCS(=O)(=O)N[C@H]1C[C@@H](C(F)F)N(C(=O)OC)[C@H]1COC1CCC2(c3ncc(F)cn3)CC2C1` (stereo partly drawn) [Example 117, methyl (2R,3S,5S)-5-(difluoromethyl)-3-(ethylsulfonamido)-2-(((6-(5-fluoropyrimidin-2-yl)bicyclo[4.1.0]heptan-3-yl)oxy)methyl)pyrrolidine-1-carboxylate], the half-maximal inhibitory concentration (IC50) was 1.2 nM.

For `CC(C)OC(=O)N1[C@H](C(F)F)C[C@H](NS(C)(=O)=O)[C@@H]1CO[C@H]1CC[C@@]2(c3ncc(F)cn3)C[C@H]2C1` [Example 119, isopropyl (2R,3S,5S)-5-(difluoromethyl)-2-((((1S,3S,6R)-6-(5-fluoropyrimidin-2-yl)bicyclo[4.1.0]heptan-3-yl)oxy)methyl)-3-(methylsulfonamido)pyrrolidine-1-carboxylate], the IC50 was determined as 1.4 nM.

Consider `COC(=O)N1[C@H](C(F)F)C[C@H](NS(=O)(=O)C(C)C)[C@@H]1COC1CCC2(c3ncc(F)cn3)CC2C1` (stereo partly drawn) [Example 120, methyl (2R,3S,5S)-5-(difluoromethyl)-2-(((6-(5-fluoropyrimidin-2-yl)bicyclo[4.1.0]heptan-3-yl)oxy)methyl)-3-((1-methylethyl)sulfonamido)pyrrolidine-1-carboxylate], for which the IC50 stood at 2.4 nM.

For the molecule `CC(C)OC(=O)N1CCC[C@H](NS(=O)(=O)C(F)F)[C@@H]1CO[C@H]1CC[C@@]2(c3ncc(F)cn3)C[C@H]2C1` [Example 121, isopropyl (2R,3S)-3-((difluoromethyl)sulfonamido)-2-((((1S,3S,6R)-6-(5-fluoropyrimidin-2-yl)bicyclo[4.1.0]heptan-3-yl)oxy)methyl)piperidine-1-carboxylate], the IC50 turned out to be 0.86 nM.

In the case of `CC(C)OC(=O)N1CCC[C@H](NS(=O)(=O)C2CC2)[C@@H]1COC1CCC2(c3ncc(F)cn3)CC2C1` (stereo partly drawn) [Example 122, isopropyl (2R,3S)-3-(cyclopropanesulfonamido)-2-(((6-(5-fluoropyrimidin-2-yl)bicyclo[4.1.0]heptan-3-yl)oxy)methyl)piperidine-1-carboxylate], the IC50 is 6.1 nM.

With `CC(C)OC(=O)N1CCC[C@H](NS(=O)(=O)C(F)(F)F)[C@@H]1COC1CC[C@@]2(c3ncc(F)cn3)CC2C1` (stereo partly drawn) [Example 123, isopropyl (2R,3S)-2-(((6-(5-fluoropyrimidin-2-yl)bicyclo[4.1.0]heptan-3-yl)oxy)methyl)-3-((trifluoromethyl)sulfonamido)piperidine-1-carboxylate], the half-maximal inhibitory concentration (IC50) amounted to 4.1 nM.

Turning to `CCS(=O)(=O)N[C@H]1CCCN(C(=O)OC(C)C)[C@H]1COC1CC[C@@]2(c3ncc(F)cn3)CC2C1` (stereo partly drawn) [Example 126, isopropyl (2R,3S)-3-(ethylsulfonamido)-2-(((6-(5-fluoropyrimidin-2-yl)bicyclo[4.1.0]heptan-3-yl)oxy)methyl)piperidine-1-carboxylate], the IC50 turned out to be 3.3 nM.

Consider `COC(=O)N1[C@@H]2CCC[C@@H]2[C@H](NS(=O)(=O)C2CC2)[C@@H]1COC1CCC2(c3ncc(F)cn3)CC2C1` (stereo partly drawn) [Example 128, methyl (2R,3S,3aS,6aR)-3-(cyclopropanesulfonamido)-2-(((6-(5-fluoropyrimidin-2-yl)bicyclo[4.1.0]heptan-3-yl)oxy)methyl)hexahydrocyclopenta[b]pyrrole-1(2H)-carboxylate], for which the IC50 came to 1.8 nM.

`CCS(=O)(=O)N[C@H]1[C@H]2CCC[C@H]2N(C(=O)OC)[C@H]1COC1CCC2(c3ncc(F)cn3)CC2C1` (stereo partly drawn) [Example 129, methyl (2R,3S,3aS,6aR)-3-(ethylsulfonamido)-2-(((6-(5-fluoropyrimidin-2-yl)bicyclo[4.1.0]heptan-3-yl)oxy)methyl)hexahydrocyclopenta[b]pyrrole-1(2H)-carboxylate]: the IC50 was found to be 0.9 nM.

Consider `COC(=O)N1[C@@H]2CCC[C@@H]2[C@H](NS(=O)(=O)CF)[C@@H]1COC1CCC2(c3ncc(F)cn3)CC2C1` (stereo partly drawn) [Example 130, methyl (2R,3S,3aS,6aR)-3-((fluoromethyl)sulfonamido)-2-(((6-(5-fluoropyrimidin-2-yl)bicyclo[4.1.0]heptan-3-yl)oxy)methyl)hexahydrocyclopenta[b]pyrrole-1(2H)-carboxylate], for which the IC50 was 1.4 nM.

Values taken from US20230365533A1, “BICYCLOHEPTANE PYRROLIDINE OREXIN RECEPTOR AGONISTS” (MERCK SHARP & DOHME CORP., priority 2021, published 2023).
